Results reported in US10385378B2, “Method for determining toxic substances by plant gel agar coagulation” (priority 2017, dated 2019).
Values after ≈ are worked out from the molar mass of the structure shown. Like-named read-outs stand apart in the source and are kept apart here.

How the values were obtained:
[1] = in vitro; details: mouse
Experimental: (§1) The MTT reagent was reduced to the purple crystalline formazan by the mitochondrial enzyme of surviving cells, and the crystals were dissolved by DMSO (Dimethyl Sulfoxide).
(§2) Subsequently, the absorbance of OD570 nm was measured. The color depth was proportional with the number of viable cells. […] After 3-5 hours, the cells were plated on 96-well plates and added to the sample (100 μl per well). After incubation for 24 hours, the MTT reagent (MTT 5 mg/ml dissolved in PBS) was reacted for 1 to 2 hours. The culture medium in the 96-well dish was blotted with the MTT reagent and dissolved in 100 μl of DMSO. The absorbance values were read at a wavelength of 570 nm with an ELISA kit.

[2] = in vitro; details: mouse; remark: listed apart in the source
Experimental: as §1, §2

[3] = Cell viability analysis (MTT) cytotoxicity, skin 3T3 cells; details: mouse, skin 3T3 cells (ATCC CCL-92)
Experimental: as §1, §2

[4] = Agar coagulation time with cosmetic materials (3% agar); details: for Agar coagulation time with increase of sample concentration vs control group: FIGS. 2-6, mean±SEM, N=3
Experimental: The agar gel solution is dissolved to form a clear solution by changing the temperature in the range from a room temperature to 25° C. The agar gel solution is held in a carrier, such as a bottle, or a test tube, and is tilted at about 30°-60° (for example, 45°) from the vertical orientation. The coagulation time is defined when the agar gel solution ceases to flow.
The subject method utilizes a carrier (such as, for example, a test tube) to observe the effect of added cosmetic material to the coagulation of agar, so as to assess the toxicity of cosmetic materials. In this example, the present invention further evaluates the relevance of the cosmetic material toxicity based on the agar coagulation time with the cytotoxic IC50 testing.
The agar was prepared to be used as the main application material (the plant gel material) for the present invention, and a sample was prepared to test the coagulation time of the agar (for 25 samples under study) as described above. For example, the concentrations of agar solutions are 1%, 2%, 3%, 4%, 5%, and 6% (w/w). In one of the examples, 3% agar solution was heated to 100° C. to be dissolved, and then 100 ml or 200 ml of agar solution was added to a bottle or a test tube to be mixed with various samples (100 ml, or 200 ml). The bottle, or the test tube, were tilted about 45° relative to a plane each 30 seconds, to observe whether there is coagulation, and the cooling from 100° C. to room temperature and corresponding coagulation times were recorded.

[5] = Cell viability analysis (MTT) cytotoxicity, B16-F10 cells; details: mouse, B16-F10 cells (ATCC CRL-6475)
Experimental: as §1, §2

[6] = test system: B16-F10 cells
Experimental: as §1, §2

[7] = test system: skin 3T3 cells
Experimental: as §1, §2

[8] = test system: skin 3T3 cells; experiment: Cell viability analysis (MTT) cytotoxicity, skin 3T3 cells; details: MTT, incubation for 24 hours
Experimental: as §1, §2

[9] = test system: B16-F10 cells; experiment: Cell viability analysis (MTT) cytotoxicity, B16-F10 cells; details: MTT, incubation for 24 hours
Experimental: as §1, §2

[10] = sample concentration 10 % (w/w)
[11] = sample concentration 20 % (w/w)
[12] = sample concentration 30 % (w/w)
[13] = sample concentration 15 % (w/w)

Row | Compound | IC50 at 24 h [3] [µg/mL] | Agar coagulation time ([4]; sample concentration 1 % (w/w)) [min] | Agar coagulation time ([4]; sample concentration 5 % (w/w)) [min] | Agar coagulation time [4, 10] [min] | Agar coagulation time [4, 11] [min] | Agar coagulation time [4, 12] [min] | IC50 at 24 h [5] [µg/mL] | other results
1 | Nc1ccccc1O [2-Aminophenol] | – | – | – | – | – | – | – | IC50 [1]: 41.2 µg/mL (≈ 0.378 mM); IC50 [2]: 39.3 µg/mL (≈ 0.36 mM)
2 | Nc1cccc(O)c1 [3-Aminophenol] | 308 (≈ 2.82 mM) | 16.489 ± 0.475 | 20.455 ± 0.968 | 24.478 ± 1.280 | 43.671 ± 0.886 | 67.444 ± 1.687 | 126 (≈ 1.16 mM) | –
3 | CCCCCCCCCCCCOS(=O)(=O)O.N [AmmoniumLauryl Sulfate, Ammonium Lauryl Sulfate] | – | 16.444 ± 0.477 | 18.811 ± 0.987 | 28.372 ± 1.287 | – | – | – | Agar coagulation time with increase of sample concentration vs control group [4]: significantly longer; Agar coagulation time [4, 13]: 39.572 ± 1.077 min
4 | CCCCOC(=O)c1ccc(O)cc1 [Butyl Paraben] | – | 13.186 ± 0.080 | 13.210 ± 0.079 | 13.182 ± 0.076 | 13.141 ± 0.050 | 13.238 ± 0.107 | – | –
5 | CC(O)CCO (centres unmarked) [Butylene Glycol] | – | – | – | – | – | – | – | IC50 [1]: 7320 µg/mL (≈ 81.3 mM); B16-F10 cytotoxicity IC50 [6]: >10000 µg/mL
6 | OCC(O)CO [Glycerin] | – | 13.220 ± 0.081 | 13.228 ± 0.053 | 13.333 ± 0.087 | 13.265 ± 0.067 | 13.322 ± 0.091 | – | –
7 | OO [Hydrogen Peroxide] | 63.7 (≈ 1.87 mM) | 18.406 ± 0.121 | 30.544 ± 0.139 | 91.139 ± 0.257 | – | – | 48.9 (≈ 1.44 mM) | Classification harmful / not harmful to skin by agar coagulation time compared with cell survival analysis [4]: harmful to skin; Agar coagulation time ([4]; sample concentration 17.5 % (w/w)): >1440 min
8 | CCCCCCCCCCCCCC(=O)OC(C)C [Isopropyl Myristate] | > 10000 | 13.153 ± 0.056 | 13.186 ± 0.069 | 13.185 ± 0.066 | 13.172 ± 0.065 | 13.206 ± 0.087 | > 10000 | –
9 | CC(O)C(=O)O (centres unmarked) [Lactic acid] | 30.5 (≈ 0.338 mM) | 18.299 ± 0.078 | 23.378 ± 0.091 | 43.302 ± 0.099 | 253.306 ± 0.124 | >1440 | 66 (≈ 0.733 mM) | Classification harmful / not harmful to skin by agar coagulation time compared with cell survival analysis [4]: harmful to skin
10 | Cl.NCCCC[C@H](N)C(=O)O [Lysine hydrochloride] | – | 13.241 ± 0.080 | 13.198 ± 0.077 | 13.238 ± 0.100 | 13.254 ± 0.119 | 13.286 ± 0.147 | – | –
11 | Cn1sc(Cl)cc1=O [Methylchloroisothiazolinone] | – | – | – | – | – | – | – | Skin cell 3T3 Cytotoxicity IC50 [7]: 36.5 µg/mL; B16-F10 cytotoxicity IC50 [6]: 58 µg/mL
12 | NCCO [Monoethanolamine] | – | 13.193 ± 0.067 | 13.251 ± 0.077 | 13.296 ± 0.066 | 13.345 ± 0.088 | 13.354 ± 0.083 | 3650 (≈ 59.7 mM) | –
13 | Oc1cccc(O)c1 [Resorcinol] | 9860 (≈ 89.5 mM) | 32.821 ± 0.082 | 238.511 ± 0.101 | >4320 | >4320 | >4320 | 4930 (≈ 44.8 mM) | –
14 | O=C(O)c1ccccc1O [Salicylic Acid] | 1390 (≈ 10.1 mM) | 13.210 ± 0.087 | 13.221 ± 0.091 | 13.144 ± 0.068 | 13.219 ± 0.093 | 13.184 ± 0.063 | 414 (≈ 3 mM) | –
15 | CC(C)CCCC(C)CCCC(C)CCCCC(C)CCCC(C)CCCC(C)C (centres unmarked) [Squalane] | > 10000 | 13.260 ± 0.068 | 13.199 ± 0.073 | 13.276 ± 0.081 | 13.254 ± 0.077 | 13.305 ± 0.097 | 5420 (≈ 12.8 mM) | –
16 | CC(=O)Oc1c(C)c(C)c2c(c1C)CCC(C)(CCC[C@H](C)CCC[C@H](C)CCCC(C)C)O2 (some centres unmarked) [Tocopherol Acetate] | > 10000 | 13.200 ± 0.080 | 13.209 ± 0.079 | 13.185 ± 0.072 | 13.167 ± 0.066 | 13.192 ± 0.071 | > 10000 | –
17 | O.O.O=C([O-])CC(O)(CC(=O)[O-])C(=O)[O-].[Na+].[Na+].[Na+] [Trisodium Citrate Dihydrate] | – | – | – | – | – | – | – | Skin cell 3T3 Cytotoxicity IC50 [7]: >10000 µg/mL; B16-F10 cytotoxicity IC50 [6]: 3335.4 µg/mL
18 | COC(=O)c1ccc(O)cc1 [methyl p-hydroxybenzate] | > 10000 | 13.230 ± 0.084 | 13.197 ± 0.066 | 13.242 ± 0.087 | 13.208 ± 0.100 | 13.203 ± 0.090 | 4850 (≈ 31.9 mM) | –
19 | Nc1ccc(N)cc1 [p-Phenylenediamine] | – | 16.245 ± 0.468 | 22.189 ± 0.782 | 27.500 ± 1.073 | 39.489 ± 1.572 | 52.689 ± 1.982 | – | Agar coagulation time with increase of sample concentration vs control group [4]: significantly longer
20 | O.O.O.O.O.O.O.O.O.[Na+].[Na+].[S-2] [sodium Sulfide-9-Hydrate] | – | – | – | – | – | – | – | Skin cell 3T3 Cytotoxicity IC50 [7]: >10000 µg/mL; B16-F10 cytotoxicity IC50 [6]: 4187.1 µg/mL
21 | Disodium Lauroamphodiacetate | – | 14.356 ± 0.097 | 20.422 ± 0.106 | 43.333 ± 0.112 | – | – | – | Skin cell 3T3 Cytotoxicity IC50 [8]: 55.6 µg/mL; Classification harmful / not harmful to skin by agar coagulation time compared with cell survival analysis [4]: harmful to skin; Agar coagulation time [4, 13]: 87.784 ± 0.176 min; B16-F10 cytotoxicity IC50 [9]: 72.8 µg/mL
